This is an account of results in the supplement of paper PMC10307832.

What all share (experiment): relative viability (nuclei count vs DMSO), 5 days (fraction); higher = more cells survive
Compound in assay [1]: Cc1ccc(C(=O)Nc2ccc(CN3CCN(C)CC3)c(C(F)(F)F)c2)cc1C#Cc1cnc2cccnn12 [Ponatinib] + C[C@@H](Oc1cc(-c2cnn(C3CCNCC3)c2)cnc1N)c1c(Cl)ccc(F)c1Cl [Crizotinib] (partner 1 µM)
In short, it runs like this: (§1)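 Lung cancer cell lines were seeded in 1536-well plates and dosed by pin tool the next day, with either a single drug or a fixed anchor-drug dose combined with five library-drug doses (not always all listed) spaced in √10 steps. Five days later, one step fixed the cells and stained their nuclei (final 0.05% Triton X-100, 1% formaldehyde, 1 ug/ml Hoechst), and nuclei were counted on 4× images. Relative viability is the nuclei count in treated wells divided by the count in vehicle wells, and each value is the median of duplicate plates.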

Compound in assay [2]: Cc1ccc(C(=O)Nc2ccc(CN3CCN(C)CC3)c(C(F)(F)F)c2)cc1C#Cc1cnc2cccnn12 [Ponatinib] + C[C@]1(O)C[C@@H](c2nc(-c3ccc4ccc(-c5ccccc5)nc4c3)c3c(N)nccn32)C1 [Linsitinib] (partner 1 µM)
In short, it runs like this:
as §1

Compound in assay [3]: Cc1ccc(C(=O)Nc2ccc(CN3CCN(C)CC3)c(C(F)(F)F)c2)cc1C#Cc1cnc2cccnn12 [Ponatinib] + CS(=O)(=O)N1CCN(Cc2cc3nc(-c4cccc5[nH]ncc45)nc(N4CCOCC4)c3s2)CC1 [Pictilisib] (partner 1 µM)
In short, it runs like this: as §1

Compound in assay [4]: Cc1ccc(C(=O)Nc2ccc(CN3CCN(C)CC3)c(C(F)(F)F)c2)cc1C#Cc1cnc2cccnn12 [Ponatinib] + Cc1cc(Nc2cc(N3CCN(C)CC3)nc(Sc3ccc(NC(=O)C4CC4)cc3)n2)n[nH]1 [Tozasertib] (partner 0.1 µM)
In short, it runs like this:
as §1

Compound in assay [5]: Cc1ccc(C(=O)Nc2ccc(CN3CCN(C)CC3)c(C(F)(F)F)c2)cc1C#Cc1cnc2cccnn12 [Ponatinib] + COc1cccc2cc(-c3nc([C@H]4CC[C@H](C(=O)O)CC4)n4ncnc(N)c34)[nH]c12 [OSI-027] (partner 0.5 µM)
In short, it runs like this: as §1

Turning to NCI-H838, the relative viability amounted to 0.793 in assay [1] (first compound 0.002 µM); 0.95 in assay [1] (first compound 0.006325 µM); 0.813 in assay [1] (first compound 0.06325 µM); 0.789 in assay [1] (first compound 0.2 µM); 0.939 in assay [2] (first compound 0.002 µM); 1.05 in assay [2] (first compound 0.006325 µM). The relative viability in assay [2] (first compound 0.06325 µM) was found to be 1.19; in assay [2] (first compound 0.2 µM), 0.858; in assay [3] (first compound 0.002 µM), 0.564; in assay [3] (first compound 0.006325 µM), 0.505; in assay [3] (first compound 0.06325 µM), 0.455; in assay [3] (first compound 0.2 µM) it was 0.455. Further, the relative viability in assay [4] (first compound 0.002 µM) amounted to 0.275; in assay [4] (first compound 0.006325 µM), 0.271; in assay [4] (first compound 0.06325 µM), 0.286; in assay [4] (first compound 0.2 µM), 0.256; in assay [5] (first compound 0.002 µM), 0.416; in assay [5] (first compound 0.006325 µM) it was 0.416. Besides, the values for the relative viability in assay [5] (first compound 0.06325 µM) and in assay [5] (first compound 0.2 µM) were 0.482 and 0.349, respectively.

For the cell line NCI-H1355, the relative viability in assay [1] (first compound 0.002 µM) was found to be 0.989; in assay [1] (first compound 0.006325 µM) it was 1.06; in assay [1] (first compound 0.06325 µM), 1.16; in assay [1] (first compound 0.2 µM), 1.15; in assay [2] (first compound 0.002 µM) it was 0.833; in assay [2] (first compound 0.006325 µM), 0.916. Also, the relative viability in assay [2] (first compound 0.06325 µM) came to 1.08; in assay [2] (first compound 0.2 µM), 0.947; in assay [3] (first compound 0.002 µM) it was 0.408; in assay [3] (first compound 0.006325 µM) it was 0.59; in assay [3] (first compound 0.06325 µM), 0.563; in assay [3] (first compound 0.2 µM), 0.568. The relative viability worked out at 0.566 in assay [4] (first compound 0.002 µM); 0.542 in assay [4] (first compound 0.006325 µM); 0.582 in assay [4] (first compound 0.06325 µM); 0.455 in assay [4] (first compound 0.2 µM); 0.409 in assay [5] (first compound 0.002 µM); 0.48 in assay [5] (first compound 0.006325 µM). For the same cell line, the relative viability in assay [5] (first compound 0.06325 µM) is 0.43; in assay [5] (first compound 0.2 µM), 0.385.

In the case of NCI-H1437, the relative viability in assay [1] (first compound 0.002 µM) came out at 0.899; in assay [1] (first compound 0.006325 µM), 0.957; in assay [1] (first compound 0.06325 µM) it was 0.967; in assay [1] (first compound 0.2 µM), 0.763; in assay [2] (first compound 0.002 µM), 0.999; in assay [2] (first compound 0.006325 µM), 1.05. The relative viability in assay [2] (first compound 0.06325 µM) was 1.05; in assay [2] (first compound 0.2 µM), 0.915; in assay [3] (first compound 0.002 µM), 0.445; in assay [3] (first compound 0.006325 µM), 0.479; in assay [3] (first compound 0.06325 µM), 0.495; in assay [3] (first compound 0.2 µM) it was 0.406. Besides, the relative viability in assay [4] (first compound 0.002 µM) came out at 0.363; in assay [4] (first compound 0.006325 µM), 0.419; in assay [4] (first compound 0.06325 µM), 0.411; in assay [4] (first compound 0.2 µM), 0.393; in assay [5] (first compound 0.002 µM), 0.809; in assay [5] (first compound 0.006325 µM) it was 0.864. The relative viability in assay [5] (first compound 0.06325 µM) amounted to 1.01; in assay [5] (first compound 0.2 µM), 0.75.

For NCI-H1651, the relative viability in assay [1] (first compound 0.002 µM) came to 0.835; in assay [1] (first compound 0.006325 µM), 0.852; in assay [1] (first compound 0.06325 µM), 0.897; in assay [1] (first compound 0.2 µM) it was 0.876; in assay [2] (first compound 0.002 µM) it was 0.906; in assay [2] (first compound 0.006325 µM), 0.978. Further, the relative viability in assay [2] (first compound 0.06325 µM) is 1.09; in assay [2] (first compound 0.2 µM), 0.932; in assay [3] (first compound 0.002 µM) it was 0.61; in assay [3] (first compound 0.006325 µM), 0.728; in assay [3] (first compound 0.06325 µM), 0.552; in assay [3] (first compound 0.2 µM) it was 0.634. The relative viability in assay [4] (first compound 0.002 µM) is 0.685; in assay [4] (first compound 0.006325 µM), 0.662; in assay [4] (first compound 0.06325 µM), 0.563; in assay [4] (first compound 0.2 µM), 0.531; in assay [5] (first compound 0.002 µM), 0.639; in assay [5] (first compound 0.006325 µM) it was 0.638. Besides, the relative viability in assay [5] (first compound 0.06325 µM) turned out to be 0.825; in assay [5] (first compound 0.2 µM), 0.66.

On to NCI-H1666, for which the relative viability is 0.951 in assay [1] (first compound 0.002 µM); 0.978 in assay [1] (first compound 0.006325 µM); 1.06 in assay [1] (first compound 0.06325 µM); 0.989 in assay [1] (first compound 0.2 µM); 0.765 in assay [2] (first compound 0.002 µM); 0.916 in assay [2] (first compound 0.006325 µM). The relative viability was determined as 1.09 in assay [2] (first compound 0.06325 µM); 0.859 in assay [2] (first compound 0.2 µM); 0.534 in assay [3] (first compound 0.002 µM); 0.436 in assay [3] (first compound 0.006325 µM); 0.48 in assay [3] (first compound 0.06325 µM); 0.702 in assay [3] (first compound 0.2 µM). Moreover, the relative viability stood at 0.707 in assay [4] (first compound 0.002 µM); 0.627 in assay [4] (first compound 0.006325 µM); 0.669 in assay [4] (first compound 0.06325 µM); 0.548 in assay [4] (first compound 0.2 µM); 0.727 in assay [5] (first compound 0.002 µM); 0.762 in assay [5] (first compound 0.006325 µM). Further, the relative viability in assay [5] (first compound 0.06325 µM) was 0.872; in assay [5] (first compound 0.2 µM), 0.79.

Turning to NCI-H1734, the relative viability was found to be 0.638 in assay [1] (first compound 0.002 µM); 0.657 in assay [1] (first compound 0.006325 µM); 0.647 in assay [1] (first compound 0.06325 µM); 0.577 in assay [1] (first compound 0.2 µM); 0.792 in assay [2] (first compound 0.002 µM); 0.864 in assay [2] (first compound 0.006325 µM). Moreover, the relative viability came out at 1 in assay [2] (first compound 0.06325 µM); 0.754 in assay [2] (first compound 0.2 µM); 0.421 in assay [3] (first compound 0.002 µM); 0.456 in assay [3] (first compound 0.006325 µM); 0.414 in assay [3] (first compound 0.06325 µM); 0.365 in assay [3] (first compound 0.2 µM). Moreover, the relative viability in assay [4] (first compound 0.002 µM) came out at 0.267; in assay [4] (first compound 0.006325 µM), 0.293; in assay [4] (first compound 0.06325 µM) it was 0.217; in assay [4] (first compound 0.2 µM), 0.26; in assay [5] (first compound 0.002 µM), 0.58; in assay [5] (first compound 0.006325 µM) it was 0.589. The relative viability in assay [5] (first compound 0.06325 µM) amounted to 0.521; in assay [5] (first compound 0.2 µM), 0.449.

As for NCI-H1755, the relative viability turned out to be 0.858 in assay [1] (first compound 0.002 µM); 0.869 in assay [1] (first compound 0.006325 µM); 0.896 in assay [1] (first compound 0.06325 µM); 0.822 in assay [1] (first compound 0.2 µM); 0.984 in assay [2] (first compound 0.002 µM); 0.949 in assay [2] (first compound 0.006325 µM). Besides, the relative viability in assay [2] (first compound 0.06325 µM) is 1.05; in assay [2] (first compound 0.2 µM) it was 0.986; in assay [3] (first compound 0.002 µM) it was 0.502; in assay [3] (first compound 0.006325 µM) it was 0.535; in assay [3] (first compound 0.06325 µM), 0.505; in assay [3] (first compound 0.2 µM), 0.391. Besides, the relative viability in assay [4] (first compound 0.002 µM) worked out at 0.607; in assay [4] (first compound 0.006325 µM) it was 0.59; in assay [4] (first compound 0.06325 µM), 0.54; in assay [4] (first compound 0.2 µM), 0.547; in assay [5] (first compound 0.002 µM) it was 0.652; in assay [5] (first compound 0.006325 µM), 0.694. Also, the relative viability in assay [5] (first compound 0.06325 µM) turned out to be 0.707; in assay [5] (first compound 0.2 µM), 0.595.
